Molecular target: T1, recombinant EphB4 (Homo sapiens, UniProt P54760)
T1 construct: amino acids 563-987; Swiss-Prot Acc; No. P54760; purchased ProQinase GmbH 0178-0000-3
T1 sequence (P54760 563-987): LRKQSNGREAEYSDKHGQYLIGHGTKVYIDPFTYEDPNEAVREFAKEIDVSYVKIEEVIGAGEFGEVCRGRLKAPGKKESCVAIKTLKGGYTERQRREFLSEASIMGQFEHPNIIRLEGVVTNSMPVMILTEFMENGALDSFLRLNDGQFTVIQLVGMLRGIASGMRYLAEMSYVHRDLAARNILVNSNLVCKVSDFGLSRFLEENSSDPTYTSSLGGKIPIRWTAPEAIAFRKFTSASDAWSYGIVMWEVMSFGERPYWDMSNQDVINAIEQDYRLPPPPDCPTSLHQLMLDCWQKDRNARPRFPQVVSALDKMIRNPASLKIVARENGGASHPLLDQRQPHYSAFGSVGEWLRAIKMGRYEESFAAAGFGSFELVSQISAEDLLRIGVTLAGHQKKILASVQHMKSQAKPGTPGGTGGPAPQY
Assay: In vitro EphB4 enzyme assay (Alphascreen)
Assay type: biochemical
Protocol: This assay detects inhibitors of EphB4-mediated phosphorylation of a polypeptide substrate using Alphascreen™ luminescence detection technology. Briefly, recombinant EphB4 was incubated with a biotinylated-polypeptide substrate (biotin-poly-GAT) in presence of magnesium-ATP. The reaction was stopped by addition of EDTA, together with streptavidin-coated donor beads which bind the biotin-substrate containing any phosphorylated tyrosine residues. Anti-phosphotyrosine antibodies present on acceptor beads bind to phosphorylated substrate, thus bringing the donor & acceptor beads into close proximity. Subsequent excitation of the donor beads at 680 nm generated singlet oxygen species that interact with a chemiluminescer on the acceptor beads, leading to light emission at 520-620 nm. The signal intensity is directly proportional to the level of substrate phosphorylation and thus inhibition is measured by a decrease in signal.
Assay plates were then incubated at room temperature for 1 hr. […] The plates were sealed under natural lighting conditions, wrapped in aluminium foil and incubated in the dark for a further 20 hrs.
The resulting assay signal was determined on the Perkin Elmer EnVision plate reader. The minimum value was subtracted from all values, and the signal plotted against compound concentration to generate IC50 data.

SMILES	IC50
CN(c1ccnc(Nc2cc(N3CCOCC3)cc(N3CCSCC3)c2)n1)c1ccc(F)c(Cl)c1F [Example 1, N′-(3-chloro-2,4-difluoro-phenyl)-N′-methyl-N-(3-morpholin-4-yl-5-thiomorpholin-4-yl-phenyl)pyrimidine-2,4-diamine]	763 nM
CN(c1ccnc(Nc2cc(N3CCOCC3)cc(N3CCOCC3)c2)n1)c1ccc(F)c(Cl)c1F [Example 2.1, N′-(3-chloro-2,4-difluoro-phenyl)-N-(3,5-dimorpholin-4-ylphenyl)-N′-methyl-pyrimidine-2,4-diamine]	829 nM
CN(c1ccnc(Nc2cccc(N3CCOCC3)c2)n1)c1ccc(F)c(Cl)c1F [Example 2.3, N′-(3-chloro-2,4-difluoro-phenyl)-N′-methyl-N-(3-morpholin-4-ylphenyl)pyrimidine-2,4-diamine]	304 nM
COc1cc(Nc2nccc(N(C)c3ccc(F)c(Cl)c3F)n2)cc(N2CCOCC2)c1 [Example 2.4, N′-(3-chloro-2,4-difluoro-phenyl)-N-(3-methoxy-5-morpholin-4-yl-phenyl)-N′-methyl-pyrimidine-2,4-diamine]	348 nM
CN(c1ccnc(Nc2cc(C#N)cc(N3CCOCC3)c2)n1)c1ccc(F)c(Cl)c1F [Example 2.5, 3-[[4-[(3-chloro-2,4-difluoro-phenyl)-methyl-amino]pyrimidin-2-yl]amino]-5-morpholin-4-yl-benzonitrile]	937 nM
CN(c1ccnc(Nc2cc(N3CCOCC3)cc(S(C)(=O)=O)c2)n1)c1ccc(F)c(Cl)c1F [Example 2.6, N′-(3-chloro-2,4-difluoro-phenyl)-N′-methyl-N-(3-methylsulfonyl-5-morpholin-4-yl-phenyl) pyrimidine-2,4-diamine]	447 nM
CN(c1ccnc(Nc2cc(CO)cc(N3CCOCC3)c2)n1)c1ccc(F)c(Cl)c1F [Example 2.7, [3-[[4-[(3-chloro-2,4-difluoro-phenyl)-methyl-amino]pyrimidin-2-yl]amino]-5-morpholin-4-yl-phenyl] methanol]	117 nM
CN(C)C(=O)c1cc(Nc2nccc(N(C)c3ccc(F)c(Cl)c3F)n2)cc(N2CCOCC2)c1 [Example 2.8, 3-[[4-[(3-chloro-2,4-difluoro-phenyl)-methyl-amino]pyrimidin-2-yl]amino]-N,N-dimethyl-5-morpholin-4-yl-benzamide]	335 nM
COCCOc1cc(Nc2nccc(N(C)c3ccc(F)c(Cl)c3F)n2)cc(N2CCOCC2)c1 [Example 2.9, N′-(3-chloro-2,4-difluoro-phenyl)-N-[3-(2-methoxyethoxy)-5-morpholin-4-yl-phenyl]-N′-methyl-pyrimidine-2,4-diamine]	781 nM
CN(c1ccnc(Nc2cc(N3CCC(O)CC3)cc(S(C)(=O)=O)c2)n1)c1ccc(F)c(Cl)c1F [Example 2.11, 1-[3-[[4-[(3-chloro-2,4-difluoro-phenyl)-methyl-amino]pyrimidin-2-yl]amino]-5-methylsulfonyl-phenyl] piperidin-4-ol]	106 nM
CC(=O)N1CCN(c2cc(Nc3nccc(N(C)c4ccc(F)c(Cl)c4F)n3)cc(S(C)(=O)=O)c2)CC1 [Example 2.12, 1-[4-[3-[[4-[(3-chloro-2,4-difluoro-phenyl)-methyl-amino]pyrimidin-2-yl]amino]-5-methylsulfonyl-phenyl]piperazin-1-yl] ethanone]	189 nM
CN(c1ccnc(Nc2cc(N3CCN(CCO)CC3)cc(S(C)(=O)=O)c2)n1)c1ccc(F)c(Cl)c1F [Example 2.13, 2-[4-[3-[[4-[(3-chloro-2,4-difluoro-phenyl)-methyl-amino]pyrimidin-2-yl]amino]-5-methylsulfonyl-phenyl]piperazin-1-yl] ethanol]	69.7 nM
COCc1cc(Nc2nccc(N(C)c3ccc(F)c(Cl)c3F)n2)cc(N2CCOCC2)c1 [Example 2.14, N′-(3-chloro-2,4-difluoro-phenyl)-N-[3-(methoxymethyl)-5-morpholin-4-yl-phenyl]-N′-methyl-pyrimidine-2,4-diamine]	653 nM
CN(c1ccnc(Nc2cc(CN3CCOCC3)cc(N3CCOCC3)c2)n1)c1ccc(F)c(Cl)c1F [Example 2.16, N′-(3-chloro-2,4-difluoro-phenyl)-N′-methyl-N-[3-morpholin-4-yl-5-(morpholin-4-ylmethyl)phenyl]py-rimidine-2,4-diamine]	307 nM
CN1CCN(Cc2cc(Nc3nccc(N(C)c4ccc(F)c(Cl)c4F)n3)cc(N3CCOCC3)c2)CC1 [Example 2.18, N′-(3-chloro-2,4-difluoro-phenyl)-N′-methyl-N-[3-[(4-methylpiperazin-1-yl)methyl]-5-morpholin-4-yl-phenyl] pyrimidine-2,4-diamine]	46.1 nM
CN(c1ccnc(Nc2cc(CN3CCC(O)CC3)cc(N3CCOCC3)c2)n1)c1ccc(F)c(Cl)c1F [Example 2.19, 1-[[3-[[4-[(3-chloro-2,4-difluoro-phenyl)-methyl-amino]pyrimidin-2-yl]amino]-5-morpholin-4-yl-phenyl]methyl]piperidin-4-ol]	59.6 nM
CN1CCN(c2cc(Nc3nccc(N(C)c4ccc(F)c(Cl)c4F)n3)cc(S(C)(=O)=O)c2)CC1 [Example 3, N′-(3-chloro-2,4-difluoro-phenyl)-N′-methyl-N-[3-(4-methylpiperazin-1-yl)-5-methylsulfonyl-phenyl]pyrimidine-2,4-diamine]	65.1 nM
CN1CCN(c2cc(Nc3nccc(N(C)c4ccc(F)c(Cl)c4F)n3)cc(N3CCOCC3)c2)CC1 [Example 5, N′-(3-chloro-2,4-difluoro-phenyl)-N′-methyl-N-[3-(4-methylpiperazin-1-yl)-5-morpholin-4-yl-phenyl]pyrimidine-2,4-diamine]	424 nM
Cc1ccc(CO)cc1N(C)c1ccnc(Nc2cc(N3CCOCC3)cc(N3CCC(O)CC3)c2)n1 [Example 7.8, 1-[3-[[4-[[5-(hydroxymethyl)-2-methyl-phenyl]-methyl-amino]pyrimidin-2-yl]amino]-5-morpholin-4-yl-phenyl]piperidin-4-ol]	75.9 nM
Cc1ccc(CO)cc1N(C)c1ccnc(Nc2cc(N3CCOCC3)cc(N3CC[C@H](O)C3)c2)n1 [Example 7.9, (3S)-1-[3-[[4-[[5-(hydroxymethyl)-2-methyl-phenyl]-methyl-amino]pyrimidin-2-yl]amino]-5-morpholin-4-yl-phenyl]pyrrolidin-3-ol]	151 nM
Cc1ccc(CO)cc1N(C)c1ccnc(Nc2cc(N3CCOCC3)cc(N3CC[C@@H](O)C3)c2)n1 [Example 7.10, (3R)-1-[3-[[4-[[5-(hydroxymethyl)-2-methyl-phenyl]-methyl-amino]pyrimidin-2-yl]amino]-5-morpholin-4-yl-phenyl]pyrrolidin-3-ol]	13.5 nM
Cc1ccc(CO)cc1N(C)c1ccnc(Nc2cc(C(=O)N(C)C)cc(N3CCOCC3)c2)n1 [Example 7.11, 3-[[4-[[5-(hydroxymethyl)-2-methyl-phenyl]-methyl-amino]pyrimidin-2-yl]amino]-N,N-dimethyl-5-morpholin-4-yl-benzamide]	60.1 nM
Cc1ccc(CO)cc1N(C)c1ccnc(Nc2cc(CO)cc(N3CCOCC3)c2)n1 [Example 7.13, [3-[[4-[[5-(hydroxymethyl)-2-methyl-phenyl]-methyl-amino]pyrimidin-2-yl]amino]-5-morpholin-4-yl-phenyl]methanol]	32.6 nM
Cc1ccc(CO)cc1N(C)c1ccnc(Nc2cc(C#N)cc(N3CCOCC3)c2)n1 [Example 7.15, 3-[[4-[[5-(hydroxymethyl)-2-methyl-phenyl]-methyl-amino]pyrimidin-2-yl]amino]-5-morpholin-4-yl-benzonitrile]	195 nM

— patent publication US20080242663A1, “NOVEL PYRIMIDINE DERIVATIVES 698” (ASTRAZENECA AB, priority 2007, published 2008)
